From patent US4537896A, “Thrombin inhibiting arylsulfonyl guanidinophenylalanine amides” (KabiVitrum AB, priority 1982, dated 1985)
Where a name gives a salt, the structure may show the parent alone.

Experiments:
thrombin [1] = assay: Thrombin time, plasma (prolongation of coagulation time initiated by thrombin); type: biochemical, dog; settings: for Thrombin time, plasma: concentration of the inhibitor which doubles the thrombin time of dog plasma: Table 1, 37° C., 30 seconds incubation; for "Thrombin time" Concentration required to prolong the coagulation time by a factor of 2: Table 3
Method: A volume of 200 μl citrate-plasma was heated for 1 minute at 37° C. The coagulation was started by adding 10 μl fresh thrombin solution (about 5 NIH U/ml) and the coagulation time was registrated by a fibrinometer. At the inhibition experiments the plasma was incubated for 30 seconds with 10 μl inhibitor solution at different concentrations before the thrombin solutions was added.
"Thrombin time" designates the concentration (mol/l) of the inhibitor, which doubles the thrombin time of dog plasma. The Arg derivates have been synthesized according to ref. 1 and 2.Tos-Gph-OMe has been synthesized according to ref. 6.

human factor Xa = target: T1, human factor Xa (Homo sapiens, UniProt P00742); assay: Determination of Ki, inhibition of reaction of factor Xa with substrate S-2222; type: biochemical; settings: Table 3; read-out: Ki FXa (converted)
T1 construct: human factor Xa; purchased KabiVitrum AB, Stockholm
T1 sequence (P00742 235-488 limits assumed): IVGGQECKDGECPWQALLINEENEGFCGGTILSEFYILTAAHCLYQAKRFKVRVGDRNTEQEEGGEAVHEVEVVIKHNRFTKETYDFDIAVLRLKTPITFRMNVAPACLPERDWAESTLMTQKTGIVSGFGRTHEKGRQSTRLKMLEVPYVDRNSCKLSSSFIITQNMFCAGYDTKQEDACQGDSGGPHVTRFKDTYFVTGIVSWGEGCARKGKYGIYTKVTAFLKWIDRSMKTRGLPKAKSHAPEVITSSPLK
T1 sequence (P00742 41-179 partner limits assumed): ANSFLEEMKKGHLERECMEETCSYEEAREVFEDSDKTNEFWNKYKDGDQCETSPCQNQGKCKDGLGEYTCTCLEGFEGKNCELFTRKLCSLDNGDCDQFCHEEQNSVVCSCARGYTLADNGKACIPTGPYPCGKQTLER
Method: (§1) The inhibition of reaction of the enzymes (human thrombin; Sigma Chemical Co., St. Louis, U.S.A. and human factor Xa; KabiVitrum AB, Stockholm) with the substrates (S-2238 resp. S-2222, Kabi Diagnostica, Stockholm) was determined at three different substrate concentrations from 0.3 to 2 km. Six different inhibitor concentrations, which give inhibition from 40% to 90%, were incubated with the enzyme for 30 seconds at 37° C. The buffer composition, ionic strength, pH and enzyme concentration were the same as those recommended in the booklets from Kabi Diagnostica. The initial reaction velocity (ΔA/min) was measured on a recorder at 405 nm. Ki values were than graphically determined from Dixon and Lineweaver-Burk diagrams.

human thrombin = target: T2, human thrombin (Homo sapiens, UniProt P00734); assay: Determination of Ki, inhibition of reaction of thrombin with substrate S-2238; type: biochemical
T2 construct: human thrombin; purchased Sigma Chemical Co., St. Louis, U.S.A
Method: as §1
Ki of thrombin is given in mol/l.

thrombin [2] = settings: literature; cited from earlier work
thrombin [3] = settings: literature; cited from earlier work; remark: listed apart in the source
trypsin = settings: literature; cited from earlier work

Compound | Ki (human factor Xa) | Ki (human thrombin; Table 3) | "Thrombin time" Concentration required to prolong the coagulation time by a factor of 2 (thrombin [1]) | also measured
CN(C)c1cccc2c(S(=O)(=O)N[C@@H](Cc3ccc(NC(=N)N)cc3)C(=O)N3CCCCC3)cccc12 [i, N^α -Dansyl-p-guanidino-Phe-piperidide hydrochloride] | 250 µM | 0.09 µM | 6.10^-7 mol/l | Thrombin time, plasma: concentration of the inhibitor which doubles the thrombin time of dog plasma (thrombin [1]): 6.10^-7 mol/l
CN(C)c1cccc2c(S(=O)(=O)N[C@@H](CCCNC(=N)N)C(=O)N3CCCCC3)cccc12 [Dansyl--Arg--piperidide, reference compound] |  |  |  | Thrombin time, plasma: concentration of the inhibitor which doubles the thrombin time of dog plasma (thrombin [1]): 2.10^-6 mol/l; Ki (human thrombin; Table 1): 0.09 µM
CCOC(=O)[C@H](CCCNC(=N)N)NC(=O)c1ccccc1 [BAEE, Bz-Arg-OEt] |  |  |  | substrate for / split by thrombin (thrombin [2]): can be split by thrombin
COC(=O)[C@H](Cc1ccc(NC(=N)N)cc1)NS(=O)(=O)c1ccc(C)cc1 [Tos--Gph--OMe] |  |  |  | substrate for / split by thrombin (thrombin [2]): bad substrate for thrombin; inhibition of thrombin (thrombin [3]): ability to inhibit the amidase- and esterase activity of thrombin; substrate for trypsin (trypsin): good substrate for trypsin; Ki (human thrombin; Table 1): 7.5 µM
Cc1ccc(S(=O)(=O)N[C@@H](CCCNC(=N)N)C(=O)N2CCCCC2)cc1 [Tos--Arg--piperidide, reference compound] |  |  |  | Ki (human thrombin; Table 1): 5 µM
CC1CCN(C(=O)[C@H](Cc2ccc(NC(=N)N)cc2)NS(=O)(=O)c2ccc3ccccc3c2)CC1 [ii, N^α -(Naphthalene-2-sulfonyl)-p-guanidino-Phe-4-methyl-piperidide hydrochloride] | 20 µM |  | 1.10^-6 mol/l | Ki (human thrombin; Table 2, Gph-derivatives): 0.31 µM
CCOC(=O)[C@H](Cc1ccc(NC(=N)N)cc1)NC(=O)c1ccccc1 [Bz-Gph-OEt] |  |  |  | substrate for trypsin (trypsin): comparable with Tos-Gph-OMe and Tos-Arg-OMe (TAME)

The next lines start with results.

Ki (human factor Xa) | Ki (human thrombin; Table 3) | Compound | "Thrombin time" Concentration required to prolong the coagulation time by a factor of 2 (thrombin [1]) | also measured
300 µM | 0.7 µM | CN1CCN(C(=O)[C@H](Cc2ccc(NC(=N)N)cc2)NS(=O)(=O)c2cccc3c(N(C)C)cccc23)CC1 [viii] | 1.6.10^-7 mol/l | 
370 µM |  | CC1CCN(C(=O)[C@H](Cc2ccc(NC(=N)N)cc2)NS(=O)(=O)c2cccc3ccccc23)CC1 [iii, α-Naphthalenesulfonyl--Gph--4-methylpiperidide] |  | Ki (human thrombin; Table 2, Gph-derivatives): 0.35 µM
50 µM |  | N=C(N)Nc1ccc(C[C@H](NS(=O)(=O)c2ccc3ccccc3c2)C(=O)N2CCOCC2)cc1 [iv, β-Naphthalenesulfonyl--Gph--morpholide] | 8.10^-7 mol/l | Ki (human thrombin; Table 2, Gph-derivatives): 0.18 µM
300 µM | 0.08 µM | CN(C)c1cccc2c(S(=O)(=O)N[C@@H](Cc3ccc(NC(=N)N)cc3)C(=O)N3CCCCCC3)cccc12 [vi] |  | 
200 µM | 0.23 µM | CCCC1CCN(C(=O)[C@H](Cc2ccc(NC(=N)N)cc2)NS(=O)(=O)c2cccc3c(N(C)C)cccc23)CC1 [vii] | 1.5.10^-5 mol/l | 
130 µM | 0.35 µM | CCCCN(C)C(=O)[C@H](Cc1ccc(NC(=N)N)cc1)NS(=O)(=O)c1cccc2c(N(C)C)cccc12 [ix] | 2.5.10^-7 mol/l | 
250 µM |  | Cc1ccc(S(=O)(=O)N[C@@H](Cc2ccc(NC(=N)N)cc2)C(=O)N2CCCCC2)cc1 [v, Tos--Gph--piperidide] | 1.10^-6 mol/l | Thrombin time, plasma: concentration of the inhibitor which doubles the thrombin time of dog plasma (thrombin [1]): 1.10^-6 mol/l; Ki (human thrombin; Table 2, Gph-derivatives): 0.8 µM
